From ChEMBL document CHEMBL3832761, “MMV Pathogen Box Bioactivity Data” (2017)
≈ marks a conversion by molar mass, not a printed value.

How the values were obtained:
Type in all cases: functional
[1] = tested on: Mycobacterium tuberculosis; test: AntiMycobacterium tuberculosis activity Non-Replicating form: Average MIC90 (uM)
[2] = tested on: Mycobacterium tuberculosis; test: AntiMycobacterium tuberculosis activity 1-week GAST/Fe MIC (uM); details: 168 h
[3] = tested on: Mycobacterium tuberculosis; test: AntiMycobacterium tuberculosis activity 2-week GAST/Fe MIC (uM); details: 336 h
[4] = tested on: Mycobacterium tuberculosis; test: AntiMycobacterium tuberculosis activity 1-week 7H9/ADC/Tw MIC (uM); details: 168 h
[5] = tested on: Mycobacterium tuberculosis; test: AntiMycobacterium tuberculosis activity 2-week 7H9/ADC/Tw MIC (uM); details: 336 h
[6] = tested on: Mycobacterium tuberculosis; test: AntiMycobacterium tuberculosis activity 2-week Alamar Blue 7H9/ADC/Tw MIC (uM); details: 336 h
[7] = tested on: Mycobacterium tuberculosis; test: AntiMycobacterium tuberculosis activity 1-week 7H9/glucose/BSA/Tx MIC (uM); details: 168 h
[8] = tested on: Mycobacterium tuberculosis; test: AntiMycobacterium tuberculosis activity 2-week 7H9/glucose/BSA/Tx MIC (uM); details: 336 h
[9] = tested on: Mycobacterium tuberculosis; test: AntiMycobacterium tuberculosis activity 1-week 7H9/DPPC/cholesterol/BSA/Tx MIC (uM); details: 168 h
[10] = tested on: Mycobacterium tuberculosis; test: AntiMycobacterium tuberculosis activity 2-week 7H9/DPPC/cholesterol/BSA/Tx MIC (uM); details: 336 h
[11] = tested on: Mycobacterium tuberculosis; test: AntiMycobacterium tuberculosis activity 1-week 7H9/cholesterol/BSA/Tx MIC (uM); details: 168 h
[12] = tested on: Mycobacterium tuberculosis; test: AntiMycobacterium tuberculosis activity 2-week Alamar Blue 7H9/cholesterol/BSA/Tx MIC (uM); details: 336 h
[13] = tested on: Mycobacterium tuberculosis; test: (§1) AntiMycobacterium tuberculosis activity day 10 in 7H9/2.5mM butyrate/pH6/0.1mM nitrite MIC90 (uM); details: 240 h
[14] = tested on: Mycobacterium tuberculosis; test: AntiMycobacterium tuberculosis activity day 21 in 7H9/2.5mM butyrate/pH6/0.1mM nitrite MIC90 (uM); details: 504 h
[15] = tested on: Mycobacterium tuberculosis; test: as §1; details: 240 h; remark: listed apart in the source
[16] = tested on: Mycobacterium tuberculosis; test: AntiMycobacterium tuberculosis activity day 21 MIC99 in 7H9/2.5mM butyrate/pH6/0.1mM nitrite MIC99 (uM); details: 504 h
[17] = tested on: Mycobacterium tuberculosis; test: AntiMycobacterium tuberculosis activity Replicating form: Average MIC90 (uM)
[18] = tested on: HepG2; test: HepG2 CC50 (uM) Cytotoxicity; details: Homo sapiens

SMILES: Cc1cc(C)c2cc(C(=O)NC3CCCCCCC3)[nH]c2c1
- MIC90 [1]: 0.01 µM (≈ 0.00298 µg/mL)
- MIC [2]: < 0.02 µM
- MIC [3]: < 0.02 µM
- MIC [4]: < 0.02 µM
- MIC [5]: 0.02 µM (≈ 0.00597 µg/mL)
- MIC [6]: 0.02 µM (≈ 0.00597 µg/mL)
- MIC [7]: < 0.02 µM
- MIC [8]: < 0.02 µM
- MIC [9]: < 0.02 µM
- MIC [10]: < 0.02 µM
- MIC [11]: < 0.02 µM
- MIC [12]: < 0.02 µM
- MIC90 [13]: ≤ 0.04 µM
- MIC90 [14]: ≤ 0.04 µM
- MIC90 [15]: > 50 µM
- MIC [16]: > 50 µM
- MIC90 [17]: 0.01 µM (≈ 0.00298 µg/mL)
- CC50 [18]: > 100 µM

SMILES: Cc1cnc(N2CCN[C@@H](Cc3ccccc3)C2)nc1Oc1ccc(-n2ccnc2)cc1
- MIC90 [1]: 27.7 µM (≈ 11.8 µg/mL)
- MIC [2]: 6.25 µM (≈ 2.67 µg/mL)
- MIC [3]: 9.4 µM (≈ 4.01 µg/mL)
- MIC [4]: 25 µM (≈ 10.7 µg/mL)
- MIC [5]: 37 µM (≈ 15.8 µg/mL)
- MIC [6]: 19 µM (≈ 8.1 µg/mL)
- MIC [7]: 19 µM (≈ 8.1 µg/mL)
- MIC [8]: 37 µM (≈ 15.8 µg/mL)
- MIC [9]: 12.5 µM (≈ 5.33 µg/mL)
- MIC [10]: 37 µM (≈ 15.8 µg/mL)
- MIC [11]: 12.5 µM (≈ 5.33 µg/mL)
- MIC [12]: 50 µM (≈ 21.3 µg/mL)
- MIC90 [13]: > 50 µM
- MIC90 [14]: > 50 µM
- MIC90 [15]: > 50 µM
- MIC [16]: > 50 µM
- MIC90 [17]: 8.88 µM (≈ 3.79 µg/mL)
- CC50 [18]: 14.1 µM

SMILES: Nc1nc2cc(-c3cncc(Oc4ccc(F)cc4)c3)ccc2[nH]1
- MIC90 [1]: 41.2 µM (≈ 13.2 µg/mL)
- MIC [2]: 6.25 µM (≈ 2 µg/mL)
- MIC [3]: 6.25 µM (≈ 2 µg/mL)
- MIC [4]: 19 µM (≈ 6.09 µg/mL)
- MIC [5]: 19 µM (≈ 6.09 µg/mL)
- MIC [6]: 19 µM (≈ 6.09 µg/mL)
- MIC [7]: 19 µM (≈ 6.09 µg/mL)
- MIC [8]: 25 µM (≈ 8.01 µg/mL)
- MIC [9]: 12.5 µM (≈ 4 µg/mL)
- MIC [10]: 19 µM (≈ 6.09 µg/mL)
- MIC [11]: 12.5 µM (≈ 4 µg/mL)
- MIC [12]: 12.5 µM (≈ 4 µg/mL)
- MIC90 [13]: 6.25 µM (≈ 2 µg/mL)
- MIC90 [14]: 6.25 µM (≈ 2 µg/mL)
- MIC90 [15]: 25 µM (≈ 8.01 µg/mL)
- MIC [16]: 25 µM (≈ 8.01 µg/mL)
- MIC90 [17]: 9.89 µM (≈ 3.17 µg/mL)
- CC50 [18]: 31.5 µM

SMILES: CCCc1ccc(S(=O)(=O)Nc2ccc(CN3CCN(CC4CC4)CC3)cc2)cc1
- MIC90 [1]: 47.4 µM (≈ 20.3 µg/mL)
- MIC [2]: 12.5 µM (≈ 5.35 µg/mL)
- MIC [3]: 12.5 µM (≈ 5.35 µg/mL)
- MIC [4]: 19 µM (≈ 8.12 µg/mL)
- MIC [5]: 19 µM (≈ 8.12 µg/mL)
- MIC [6]: 19 µM (≈ 8.12 µg/mL)
- MIC [7]: 9.4 µM (≈ 4.02 µg/mL)
- MIC [8]: 9.4 µM (≈ 4.02 µg/mL)
- MIC [9]: 4.7 µM (≈ 2.01 µg/mL)
- MIC [10]: 6.25 µM (≈ 2.67 µg/mL)
- MIC [11]: 6.25 µM (≈ 2.67 µg/mL)
- MIC [12]: 6.25 µM (≈ 2.67 µg/mL)
- MIC90 [13]: 50 µM (≈ 21.4 µg/mL)
- MIC90 [14]: 50 µM (≈ 21.4 µg/mL)
- MIC90 [15]: > 50 µM
- MIC [16]: > 50 µM
- MIC90 [17]: 18.7 µM (≈ 8.01 µg/mL)
- CC50 [18]: 17.7 µM

SMILES: NC(CC(=O)c1ccc(Cl)cc1Cl)C(Cl)(Cl)Cl (configuration not stated)
- MIC90 [1]: 6.04 µM (≈ 2.03 µg/mL)
- MIC [2]: 0.39 µM (≈ 0.131 µg/mL)
- MIC [3]: 0.6 µM (≈ 0.201 µg/mL)
- MIC [4]: 12.5 µM (≈ 4.19 µg/mL)
- MIC [5]: 12.5 µM (≈ 4.19 µg/mL)
- MIC [6]: 12.5 µM (≈ 4.19 µg/mL)
- MIC [7]: 19 µM (≈ 6.37 µg/mL)
- MIC [8]: 25 µM (≈ 8.39 µg/mL)
- MIC [9]: 37 µM (≈ 12.4 µg/mL)
- MIC [10]: 50 µM (≈ 16.8 µg/mL)
- MIC [11]: 19 µM (≈ 6.37 µg/mL)
- MIC [12]: 25 µM (≈ 8.39 µg/mL)
- MIC90 [13]: 12.5 µM (≈ 4.19 µg/mL)
- MIC90 [14]: 12.5 µM (≈ 4.19 µg/mL)
- MIC90 [15]: > 50 µM
- MIC [16]: > 50 µM
- MIC90 [17]: 17.4 µM (≈ 5.83 µg/mL)
- CC50 [18]: 37.9 µM

SMILES: COc1cccc(-c2nc3c(N4CCCC4)cccc3n2CC2CCCN2)n1 (configuration not stated)
- MIC90 [1]: 80.6 µM (≈ 30.4 µg/mL)
- MIC [2]: 4.7 µM (≈ 1.77 µg/mL)
- MIC [3]: 4.7 µM (≈ 1.77 µg/mL)
- MIC [4]: 9.4 µM (≈ 3.55 µg/mL)
- MIC [5]: 9.4 µM (≈ 3.55 µg/mL)
- MIC [6]: 6.25 µM (≈ 2.36 µg/mL)
- MIC [7]: 25 µM (≈ 9.44 µg/mL)
- MIC [8]: 37 µM (≈ 14 µg/mL)
- MIC [9]: 25 µM (≈ 9.44 µg/mL)
- MIC [10]: 50 µM (≈ 18.9 µg/mL)
- MIC [11]: 37 µM (≈ 14 µg/mL)
- MIC [12]: 9.4 µM (≈ 3.55 µg/mL)
- MIC90 [13]: 12.5 µM (≈ 4.72 µg/mL)
- MIC90 [14]: 25 µM (≈ 9.44 µg/mL)
- MIC90 [15]: > 50 µM
- MIC [16]: > 50 µM
- MIC90 [17]: 38.5 µM (≈ 14.5 µg/mL)
- CC50 [18]: 25 µM

SMILES: Cc1ccc2nc(Cl)c(CNCc3cccs3)cc2c1
- MIC90 [1]: 93.7 µM (≈ 28.4 µg/mL)
- MIC [2]: 0.78 µM (≈ 0.236 µg/mL)
- MIC [3]: 1.56 µM (≈ 0.472 µg/mL)
- MIC [4]: > 50 µM
- MIC [5]: > 50 µM
- MIC [6]: 50 µM (≈ 15.1 µg/mL)
- MIC [7]: > 50 µM
- MIC [8]: > 50 µM
- MIC [9]: 12.5 µM (≈ 3.79 µg/mL)
- MIC [10]: > 50 µM
- MIC [11]: 19 µM (≈ 5.75 µg/mL)
- MIC [12]: 37 µM (≈ 11.2 µg/mL)
- MIC90 [13]: > 50 µM
- MIC90 [14]: > 50 µM
- MIC90 [15]: > 50 µM
- MIC [16]: > 50 µM
- MIC90 [17]: > 100 µM
- CC50 [18]: > 100 µM

SMILES: CCOC(=O)NC(=O)c1ccsc1NC(=O)c1nc2ccccc2s1
- MIC90 [1]: 0.34 µM (≈ 0.128 µg/mL)
- MIC [2]: < 0.02 µM
- MIC [3]: < 0.02 µM
- MIC [4]: 0.2 µM (≈ 0.0751 µg/mL)
- MIC [5]: 0.15 µM (≈ 0.0563 µg/mL)
- MIC [6]: 0.15 µM (≈ 0.0563 µg/mL)
- MIC [7]: 0.2 µM (≈ 0.0751 µg/mL)
- MIC [8]: 0.2 µM (≈ 0.0751 µg/mL)
- MIC [9]: 0.1 µM (≈ 0.0375 µg/mL)
- MIC [10]: 0.1 µM (≈ 0.0375 µg/mL)
- MIC [11]: 0.05 µM (≈ 0.0188 µg/mL)
- MIC [12]: 0.1 µM (≈ 0.0375 µg/mL)
- MIC90 [13]: ≤ 0.04 µM
- MIC90 [14]: ≤ 0.04 µM
- MIC90 [15]: 0.19 µM (≈ 0.0713 µg/mL)
- MIC [16]: 0.09 µM (≈ 0.0338 µg/mL)
- MIC90 [17]: 0.69 µM (≈ 0.259 µg/mL)
- CC50 [18]: 47 µM

SMILES: CCc1nc2ccc(Cl)cn2c1C(=O)NCc1ccc(N2CCC(c3ccc(OC(F)(F)F)cc3)CC2)cc1 [TELACEBEC]
- MIC90 [1]: 0.01 µM (≈ 0.00557 µg/mL)
- MIC [2]: < 0.02 µM
- MIC [3]: < 0.02 µM
- MIC [4]: > 50 µM
- MIC [5]: > 50 µM
- MIC [6]: 0.02 µM (≈ 0.0111 µg/mL)
- MIC [7]: 0.1 µM (≈ 0.0557 µg/mL)
- MIC [8]: > 50 µM
- MIC [9]: < 0.02 µM
- MIC [10]: 0.02 µM (≈ 0.0111 µg/mL)
- MIC [11]: < 0.02 µM
- MIC [12]: 0.02 µM (≈ 0.0111 µg/mL)
- MIC90 [13]: ≤ 0.04 µM
- MIC90 [14]: ≤ 0.04 µM
- MIC90 [15]: ≤ 0.04 µM
- MIC [16]: ≤ 0.04 µM
- MIC90 [17]: 0.01 µM (≈ 0.00557 µg/mL)
- CC50 [18]: > 100 µM
